These are literature values, as cited in US7208285B2 (priority 2001, dated 2007).

This data set deals with BoNT/A (Clostridium botulinum, UniProt P0DPI1).
Chain of BoNT/A (P0DPI1 whole entry, looked up): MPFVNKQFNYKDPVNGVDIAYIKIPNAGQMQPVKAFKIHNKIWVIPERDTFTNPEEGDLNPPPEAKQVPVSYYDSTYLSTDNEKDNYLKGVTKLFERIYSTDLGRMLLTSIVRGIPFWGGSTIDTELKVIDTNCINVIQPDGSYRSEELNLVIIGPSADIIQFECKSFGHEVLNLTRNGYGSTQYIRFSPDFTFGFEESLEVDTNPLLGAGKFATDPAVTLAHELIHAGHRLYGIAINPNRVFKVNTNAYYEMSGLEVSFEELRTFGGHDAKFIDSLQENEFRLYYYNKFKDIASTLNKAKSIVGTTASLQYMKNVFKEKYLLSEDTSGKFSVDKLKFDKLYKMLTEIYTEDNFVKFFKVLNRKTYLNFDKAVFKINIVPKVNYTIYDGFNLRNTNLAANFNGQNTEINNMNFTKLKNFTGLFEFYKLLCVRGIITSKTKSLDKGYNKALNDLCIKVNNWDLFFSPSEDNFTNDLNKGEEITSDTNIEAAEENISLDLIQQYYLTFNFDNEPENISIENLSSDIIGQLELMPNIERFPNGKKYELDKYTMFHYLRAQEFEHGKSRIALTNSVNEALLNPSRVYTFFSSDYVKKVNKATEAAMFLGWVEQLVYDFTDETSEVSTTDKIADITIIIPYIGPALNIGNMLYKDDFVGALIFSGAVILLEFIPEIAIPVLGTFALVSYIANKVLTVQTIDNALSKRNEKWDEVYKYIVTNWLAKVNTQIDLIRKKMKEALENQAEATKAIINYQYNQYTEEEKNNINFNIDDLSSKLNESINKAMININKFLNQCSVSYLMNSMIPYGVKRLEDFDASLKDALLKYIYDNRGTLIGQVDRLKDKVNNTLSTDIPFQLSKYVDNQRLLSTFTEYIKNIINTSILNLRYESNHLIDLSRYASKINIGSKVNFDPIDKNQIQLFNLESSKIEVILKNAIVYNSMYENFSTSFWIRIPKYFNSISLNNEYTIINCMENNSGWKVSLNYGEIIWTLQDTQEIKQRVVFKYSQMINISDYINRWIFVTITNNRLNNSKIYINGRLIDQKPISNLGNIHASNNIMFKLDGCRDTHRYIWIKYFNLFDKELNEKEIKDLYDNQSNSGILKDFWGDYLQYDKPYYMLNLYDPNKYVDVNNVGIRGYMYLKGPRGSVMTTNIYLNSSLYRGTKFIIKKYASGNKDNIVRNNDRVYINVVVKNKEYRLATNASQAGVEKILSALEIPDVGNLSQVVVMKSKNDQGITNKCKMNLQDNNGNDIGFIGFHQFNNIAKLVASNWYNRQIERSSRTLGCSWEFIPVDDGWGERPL
For the sequence SNKTRIDEAAQRATKML [Peptide N10A], the “Relative Rate” value was 0.06. With SNKTRIDEANARATKML [Peptide Q11A], the “Relative Rate” value is 0.19 and the “relative rate of proteolysis” value is on record as 0.19. Turning to SNKTRIDEANBRATKML [Peptide Q11B], the “Relative Rate” value was 0.25 and the “relative rate of proteolysis” value is on record as 0.25. For the sequence SNKTRIDEANNRATKML [Peptide Q11N], the “Relative Rate” value is 0.66 and the “relative rate of proteolysis” value is given as 0.66. For the sequence SNKTRIDEANQRABKML [Peptide T14B], the “Relative Rate” value is listed as 1.20 and the “relative rate of proteolysis” value was 1.20. For the sequence SNKTRIDEANQRASKML [Peptide T14S], the “Relative Rate” value was 0.26 and the “relative rate of proteolysis” value was 0.26.

SNKTRIDEANQRATAML [Peptide K15A]: the “Relative Rate” value was 0.12 and the “relative rate of proteolysis” value is on record as 0.12. Regarding SNKTRIDEANQRATK [[1–15]], the “Relative Rate” value was 0.03. Take SNKTRIDEANQRATKAL [Peptide M16A]: the “Relative Rate” value is 0.38 and the “relative rate of proteolysis” value is recorded as 0.38. On to SNKTRIDEANQRATKML [[1–17]], for which the “Relative Rate” value is 1.00.

For SNKTRIDEANQRATKXL [Peptide M16X], the “Relative Rate” value was 1.20 and the “relative rate of proteolysis” value is 1.20. On to SNKTRIDEANQRBTKML [Peptide A13B], for which the “Relative Rate” value is listed as 0.79 and the “relative rate of proteolysis” value is on record as 0.79. As for SNKTRIDEBNQRATKML [Peptide A9B], the “Relative Rate” value is 0.38 and the “relative rate of proteolysis” value is reported as 0.38. Consider SNKTRIDQANQRATKML [Peptide E8Q], for which the “Relative Rate” value is 2.08 and the “relative rate of proteolysis” value is reported as 2.08. Turning to SNKTRINEANQRATKML [Peptide D7N], the “Relative Rate” value is given as 0.23 and the “relative rate of proteolysis” value is recorded as 0.23.

Consider SNKTRTDEANQRATKM [[1–16]], for which the “Relative Rate” value is 1.17.
